We go through ten compounds from ChEMBL document CHEMBL3853337, “Synthesis and P1' SAR exploration of potent macrocyclic tissue factor-factor VIIa inhibitors” (Bioorg Med Chem Lett, 2016).

Series [1] deals with T1, Coagulation factor VII/tissue factor (Homo sapiens, UniProt P08709). Put plainly: Inhibition of recombinant human TF-factor 7a using factor 10 as substrate at 37 degC. The series is classed as protein-complex assay.
Series [2] has as its target Coagulation factor X (Homo sapiens, UniProt P00742). Put plainly: Inhibition of factor 10a (unknown origin) at 25 degC by chromogenic substrate assay.
Series [3] deals with Prothrombin (Homo sapiens, UniProt P00734). In words: Inhibition of thrombin (unknown origin) at 25 degC by chromogenic substrate assay.
The nature of series [4]: Inhibition of trypsin (unknown origin) at 25 degC by chromogenic substrate assay. Also noted: species or system Homo sapiens.
The target in series [5] is Kallikrein-1 (Homo sapiens, UniProt P06870). In words: Inhibition of human kallikrein1 at 37 degC by chromogenic substrate assay.
Series [6] deals with Vitamin K-dependent protein C (Homo sapiens, UniProt P04070). Put plainly: Inhibition of activated protein C (unknown origin) at 37 degC by chromogenic substrate assay.
Series [7] in a line: Half-life in human liver microsomes. The series is classed as ADME. In general terms: Microsomes from liver hold many membrane-bound enzymes, among them those of drug oxidation.
The species entered for series [8] is Homo sapiens. Put plainly: Selectivity ratio of Ki for human kallikrein1 to Ki for recombinant human TF-factor 7a.
The nature of series [9]: Anticlotting activity in human factor 7 immunodepleted plasma mixed with normal pooled plasma from different species assessed compound causing 2 times increase in prothrombin time after 3 mins relative to baseline control. It counts as functional.
For series [10], the species on record is Homo sapiens. In words: Selectivity ratio of Ki for factor 9a (unknown origin) to Ki for human factor 7a ([…] residues).
For series [11], the species on record is Homo sapiens. In words: Selectivity ratio of Ki for factor 10a (unknown origin) to Ki for human factor 7a ([…] residues).
For series [12], the species on record is Homo sapiens. Put plainly: Selectivity ratio of Ki for thrombin (unknown origin) to Ki for human factor 7a ([…] residues).
The species entered for series [13] is Homo sapiens. Put plainly: Selectivity ratio of Ki for trypsin (unknown origin) to Ki for human factor 7a ([…] residues).
A short description of series [14]: Fraction unbound in human plasma. The series is classed as ADME, cell-free.
A short description of series [15]: Permeability of the compound at pH 5.5 by PAMPA assay. The series is classed as ADME. The settings on record: read-out: permeability. A general note: PAMPA measures passive passage across an artificial lipid membrane.
Series [16] can be described thus: Permeability of the compound at pH 7.4 by PAMPA assay. It counts as ADME. The settings on record: read-out: permeability.
Series [17] can be described thus: Clearance in iv dosed dog. The series is classed as ADME, organism-based, Canis lupus familiaris. The conditions noted are these: in vivo.
Series [18] is described as follows: Oral bioavailability in iv dosed dog. It counts as ADME, organism-based, Canis lupus familiaris. The conditions noted are these: in vivo.
Series [19] in a line: Metabolic stability in human liver microsomes assessed as compound remaining after 10 mins. The series is classed as ADME. The conditions noted are these: read-out: Stability.
A short description of series [20]: Half life in Beagle dog liver microsomes at 3 uM by LC-MS/MS analysis. It counts as ADME, Canis lupus familiaris.
Series [21] can be described thus: Permeability from apical to basolateral side in human Caco2 cells. The series is classed as ADME, cell-based. The settings on record: Caco-2, read-out: permeability.
A short description of series [22]: Permeability from basolateral to apical side in human Caco2 cells. It counts as ADME, cell-based. The settings on record: Caco-2, read-out: permeability. For orientation: Passage across Caco-2 layers is used to estimate intestinal permeability.
Series [23] is described as follows: Clearance in po or iv dosed Beagle dog by LC-MS/MS analysis. The series is classed as ADME, organism-based, Canis lupus familiaris. The settings on record: in vivo.
Series [24] in a line: Oral bioavailability in Beagle dog. It counts as ADME, organism-based, Canis lupus familiaris. The conditions noted are these: in vivo.
Series [25] concerns the target T1, Coagulation factor VII/tissue factor. In words: Inhibition of human TF-factor 7a ([…] residues) using factor 10 as substrate after 60 mins. The series is classed as protein-complex assay.

The structures appear in SMILES notation. pKi: −log10 of the molar value.

One may read the pKi as −log10 of the Ki, conventionally taken in molar units. What is called half-life is how long it takes for the measured level to halve. The low end stands for rapid decline, the high end for slow decline. For the compound `Cc1cc2ccc1[C@@H](C)COC(=O)Nc1ccc(C3CC3)c(c1)CN(C)C(=O)[C@@H]2Nc1ccc2c(N)ncc(F)c2c1`, the pKi in [1] is 7.74; in series [2], 5.52; in [3], 4.74; in [4] it was below 5.21; in [5], 7.82; in series [6], 6.66. This compound displayed a half-life in [7] of 0.383 h. For the same compound, the Ratio Ki in [8] came to 0.8. Also, the EC in series [9] amounted to 32 µM.
Regarding `CCS(=O)(=O)c1ccc2cc1CNC(=O)[C@H](Nc1ccc3c(N)nccc3c1)c1ccc(c(C)c1)CCOC(=O)N2`, the EC in series [9] was 1.2 µM. Further, the Ratio Ki in series [10], in series [11], in series [12] and in [13] was above 500 throughout.
By fraction unbound is commonly meant the share of the substance not bound to proteins or other matrix. Read a high fraction unbound as weak binding. As to `Cc1cc2ccc1[C@@H](C)COC(=O)Nc1ccc(C3(C(=O)O)CCCCC3)c(c1)CN(C)C(=O)[C@@H]2Nc1ccc2c(N)ncc(F)c2c1`, the pKi in [1] was 10.22; in series [2] it was 6.05; in series [3], below 4.88; in series [4], 6.30; in [5], 5.92; in series [6], 6.81. This compound came in with a fraction unbound in series [14] of 0.017. Also, the Papp in [15] came to 80.5 ×10⁻⁶ cm/s; in series [16] it was 8 ×10⁻⁶ cm/s. This compound also had a half-life in series [7] of 1.57 h. This compound also registered an EC in series [9] of 18 µM.
Consider `Cc1cc2ccc1[C@@H](C)COC(=O)Nc1ccc(C3(C(=O)O)CCCC3)c(c1)CN(C)C(=O)[C@@H]2Nc1ccc2c(N)ncc(F)c2c1`, for which the pKi in series [1] was 9.66; in [2], 5.74; in series [3] it was below 4.88; in series [4] it was 5.66; in series [5], 5.80; in [6], 6.47. Further, the fraction unbound in [14] is 0.028. Besides, the Papp in series [15] is 21.1 ×10⁻⁶ cm/s; in series [16] it was 4 ×10⁻⁶ cm/s. The compound further came in with a clearance in series [17] of 54 mL/min/kg. Also, in series [9], the EC stood at 6.6 µM.
The bioavailability is the share of a dose that reaches the circulation, judged against a reference dose that is usually intravenous. Take `Cc1cc2ccc1[C@@H](C)COC(=O)Nc1ccc(C3(c4nnn[nH]4)CC3)c(c1)CN(C)C(=O)[C@@H]2Nc1ccc2c(N)ncc(F)c2c1`: the pKi in series [1] is 9.14; in [2] it was 5.98; in [3], below 4.88; in [4], 5.31; in series [5], 6.02; in series [6], 6.76. In series [14], the fraction unbound was 0.018. The values for the Papp in series [15] and in [16] were 11.9 ×10⁻⁶ cm/s and 4.8 ×10⁻⁶ cm/s, respectively. Besides, in [7], the half-life was found to be 1.9 h. This compound also registered a clearance in series [17] of 7 mL/min/kg. The compound further showed a bioavailability in series [18] of 2%. The compound also yielded an EC in [9] of 10 µM.
For the compound `Cc1cc2ccc1[C@@H](C)COC(=O)Nc1ccc(C3(C(=O)O)CC3)c(c1)CN(C)C(=O)[C@@H]2Nc1ccc2c(N)ncc(F)c2c1`, the pKi in series [2] was 5.18; in series [3], below 4.88; in series [4], 5.56; in [6], 7.15. For the same compound, the fraction unbound in [14] worked out at 0.044. The figures for the Papp in series [15] and in series [16] were 33.7 ×10⁻⁶ cm/s and 11.7 ×10⁻⁶ cm/s, respectively. Besides, the remaining at 10 min in series [19] came out at 100%. The compound further gave an EC in series [9] of 4.7 µM.
On to `Cc1cc2ccc1[C@@H](C)COC(=O)Nc1ccc(C3(C(=O)O)CCOCC3)c(c1)CN(C)C(=O)[C@@H]2Nc1ccc2c(N)ncc(F)c2c1`, for which the negative logarithm of the Ki (pKi) in [1] is 8.36; in series [2] it was 5.85; in series [3], below 4.88; in series [4], below 5.21; in series [5], 5.28; in series [6] it was 5.80. Further, the fraction unbound in series [14] is 0.058. The Papp in series [15] is 2.6 ×10⁻⁶ cm/s; in [16], 2.1 ×10⁻⁶ cm/s. This compound had a half-life in series [7] above 2 h. The EC in [9] was 11 µM.
`Cc1cc2ccc1[C@@H](C)COC(=O)Nc1ccc(C3CC3)c(c1)CN(C)C(=O)[C@@H]2Nc1ccc2c(N)nccc2c1` had a half-life at 3 µM in [20] of 3.33 h. The Papp A→B in [21] is below 1.5 ×10⁻⁶ cm/s. Besides, the Papp B→A in series [22] was determined as 9.3 ×10⁻⁶ cm/s. Moreover, the clearance in series [23] is 2.2 mL/min/kg. Further, the bioavailability in [24] stood at 12%. Moreover, the pKi in [25] was 8.70.
In series [20], `Cc1cc2ccc1[C@@H](C)COC(=O)Nc1ccc(S(=O)(=O)C3CC3)c(c1)CN(C)C(=O)[C@@H]2Nc1ccc2c(N)nccc2c1` yielded a half-life at 3 µM of 1.77 h. This compound also registered a clearance in series [23] of 29 mL/min/kg. The compound further yielded a bioavailability in [24] of 1%. In addition, the EC in series [9] worked out at 1.1 µM.
As for `Cc1cc2ccc1[C@@H](C)COC(=O)Nc1ccc(C3(C(=O)O)CCC3)c(c1)CN(C)C(=O)[C@@H]2Nc1ccc2c(N)ncc(F)c2c1`, the pKi in [1] was 9.85; in [2] it was 6.07; in [3], below 4.88; in series [4], 5.47; in series [5] it was 5.94; in series [6], 6.14. This compound had a free fraction (fraction unbound) in [14] of 0.033. Also, the results for the Papp in [15] and in [16] were 20.9 ×10⁻⁶ cm/s and 3.4 ×10⁻⁶ cm/s, respectively. The half-life in [7] is above 2 h. The same compound had a clearance in [17] of 56 mL/min/kg. In addition, the EC in [9] was determined as 7.9 µM.
